Reference: PMC11317573 (Proceedings of the National Academy of Sciences of the …, 2024)

Biological target: T1, RdsA (YhiN) (Escherichia coli, UniProt P37631)
T1 sequence (P37631 1-400): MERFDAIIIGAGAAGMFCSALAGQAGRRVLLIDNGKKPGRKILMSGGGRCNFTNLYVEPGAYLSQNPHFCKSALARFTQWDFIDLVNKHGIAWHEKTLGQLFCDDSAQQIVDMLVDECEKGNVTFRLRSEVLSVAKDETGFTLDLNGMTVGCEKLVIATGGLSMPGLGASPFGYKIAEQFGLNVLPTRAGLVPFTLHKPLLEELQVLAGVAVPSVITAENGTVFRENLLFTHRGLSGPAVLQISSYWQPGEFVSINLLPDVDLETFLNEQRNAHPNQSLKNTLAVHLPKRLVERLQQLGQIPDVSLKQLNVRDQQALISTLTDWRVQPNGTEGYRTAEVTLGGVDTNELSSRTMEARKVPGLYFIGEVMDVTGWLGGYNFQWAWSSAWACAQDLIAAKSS
Assay: UV/visible spectrum of purified protein
Format: binding
Settings: as purified; noncovalent

Cc1cc2nc3c(=O)[nH]c(=O)nc-3n(C[C@H](O)[C@H](O)[C@H](O)COP(=O)(O)OP(=O)(O)OC[C@H]3O[C@@H](n4cnc5c(N)ncnc54)[C@H](O)[C@@H]3O)c2cc1C [FAD]
holoprotein fraction (oxidized flavin): 61%
